“And” between values parts separate entries of the source, which are not always exact repeats. Identical values can stand only once. “Also recorded” adds a separate entry of the source. Like-named read-outs stand apart in the source and are kept apart here. Marks after values point to notes of the source that are not given here.
Legend:
[1] = tested on: SW480 P3 (ATCC #CCL228) human colon carcinoma cells; test: Screening assay for enhancement of transient expression (β-galactosidase gene, liposomal transfection, 6-well plates); assay type: cell-based; settings: for G Factor (G14): Table 1, values without asterisk, days 4-14 after transfection; for X Factor / K Factor: Table 1; for X Factor: cumulative β-galactosidase vs control, first four days after transfection, compound at the mM given in the table; for K Factor: ratio of first order rate constants of change in expression, control vs compound; for effect on transient expression when present before or during the transfection step: polyanionic carbohydrates, liposomal transfection
Text: These parameters are called the “X” factor, the “G” factor, and the “K” factor. [formula]
This factor reflects the extent to which a chemical compound added to a transfected cell enhances stabilizes transient expression for the first four days following transfection. […] For example, if expression is doubled in the presence of a compound, […]. […] X may be calculated similarly when the agent in question is a mixture of more than one chemical compound.
Cumulative protein expression, i.e., the values for “A” and “C”, is measured by summing the values measured daily in aliquots of the cultured cells.
2. G factors. G factors differ from the X factor only with respect to the time period evaluated. For calculating a G factor, the amount of protein expressed is measured from days 4-7 or days 4-14, where day 0 is the day on which the foreign DNA is added to the cells. The subscripts denote which of the two time periods provided the basis for measurement. […] As for the X factor, [formula]
3. K factor. The K factor is the ratio of the rate constants for the change in the foreign DNA expression in control transfected cells and in cells exposed to a chemical compound of the subject invention. K is determined according to the following equation: [formula]
wherein “k(DNA)” is the first order rate constant for the change in concentration of the protein expressed from the transgenic DNA, which is expressing protein as a function of time, i.e., [formula]
Values for k(DNA) are derived by using a computer program that plots the log of the foreign protein concentration against time, using the results of transgenic protein measurements that begin about 24 hours after the foreign DNA has been added to the cell. […] However, the program calculates a “best fit” line for each data set, and determines the slope of that portion of the resulting line that corresponds to the period during which protein production is changing. […] Thus, the slope is calculated during this period of decline to provide values for k(DNA) and K that can be compared for the purpose of comparing the efficacy of different chemical compounds.
SW480 P3 (ATCC #CCL228) human colon carcinoma cells (typically, 1×10^6 cells) were plated in the wells of a 6-well tissue culture plate. The number of wells plated reflected the number of days post-transfection during which the experiment would proceed. Each well contained 1 ml of complete media from a 30 ml stock solution containing: 26.4 ml RPMI tissue culture medium, 4 mM L-glutamine, 3.0 ml fetal bovine serum, and 10 μg/ml gentamicin. Cells were cultured at 37° C. in a CO2 incubator with 10% CO2 for 24 hours after being plated, during which time the cells adhered to the plates.
After the 24 hour pre-incubation step, the transfection step was carried out by removing the RPMI and adding 900 μL OPTI-MEM® (Gibco) medium containing 2 μg of VR1412 DNA (Vical, Inc., San Diego, Calif.), which expresses the bacterial β-galactosidase gene under the control of a cytomegalovirus promoter, and 8 μg of a mixture of cationic lipid (1,2-dimyristyloxyproply-3-dimethyl-hydroxyethyl ammonium bromide (e.g., “DMRIE/DOPE”) mixed in equimolar proportions with dioleoylphosphatidylethanolamine) to yield a lipid:DNA molar ratio of 0.99:1. It should be noted that typical transient transfection protocols employ 10 μg DNA per 10^6 cells, but the protocol described here uses less DNA in order to reduce toxicity to the cells. The plates were then incubated for 4 hours at 37° C.
After the 4 hour incubation step, 100 μl of heat deactivated fetal bovine serum (to stop transfection), plus 12.0 μl of 50 mg/ml gentamicin were added to each well.

[2] = pH of aqueous solutions of the compounds; assay type: physicochemical; settings: stock solutions prepared in culture media diluted with deionized water
Procedure: The pH values shown in Table 1 were determined in aqueous solutions made by diluting stock solutions prepared in culture media with deionized water.

[3] = Table 1, values marked with asterisk, days 4-7 after transfection
[4] = Table 1, days 4-7 after transfection

Row | pH (H20) [2] | Molecule | G Factor (G14) [1] | X Factor [1] | further results
1 | 4.19 | NC(=O)NC(CC(=O)O)C(=O)O (racemic) [N-CARBAMYL-DL-ASPARTIC ACID] | 115 | 26 | –
2 | 3.8 | Nc1cccc(S(=O)(=O)O)c1 [3-AMINO BENZENE SULFONIC ACID] | 32 | −19 | –
3 | 7.39 | Cn1cncc1C[C@H](N)C(=O)O [3-METHYL-L-HISTIDINE] | 55 | −15 | –
4 | 7.67 | Nc1ccc(C(=O)O)cc1 [4-AMINO-BENZOIC ACID] | −12 | 52, 52 | G Factor (G7) [1, 3]: 96; K Factor [1]: 1, 1
5 | 5.94 | CCCCc1ccc(C(=O)O)cc1 [4-BUTYLBENZOIC ACID] | – | – | –
6 | 6 | CCc1ccc(C(=O)O)cc1 [4-ETHYLBENZOIC ACID] | – | – | K Factor [1]: 1 and 2
7 | 6.13 | CCCCCCc1ccc(C(=O)O)cc1 [4-HEXYLBENZOIC ACID] | – | – | –
8 | 7.45 | CCCCCCCCc1ccc(C(=O)O)cc1 [4-OCTYL BENZOIC ACID] | −665 | −2314 | –
9 | – | CCCCCc1ccc(C(=O)O)cc1 [4-PENTYLBENZOIC ACID] | −88 | −96 | –
10 | 10.29 | CNCC(O)c1ccc(O)c(O)c1 (centres unmarked) [ADRENALINE] | 68 | 49 | pH (H20) ([2]; listed as adrenaline): ~10
11 | 5.75 | N[C@@H](CC(=O)O)C(=O)O [ASPARTIC ACID] | −45 | – | G Factor (G7) [1, 3]: −17
12 | 6.64 | O=S(=O)(O)CCN(CCO)CCO [BES] | – | 77 and 57 | K Factor [1]: 1, 1
13 | 8.32 | NCCC(=O)N[C@@H](Cc1cnc[nH]1)C(=O)O [CARNOSINE] | 35 | −8 | –
14 | – | C/C1=C2/[N-][C@H]([C@H](CC(N)=O)[C@@]2(C)CCC(=O)NC[C@@H](C)OP(=O)([O-])O[C@H]2[C@@H](O)[C@@H](n3cnc4cc(C)c(C)cc43)O[C@@H]2CO)[C@]2(C)N=C(/C(C)=C3N=C(/C=C4N=C1[C@@H](CCC(N)=O)C\4(C)C)[C@@H](CCC(N)=O)[C@]\3(C)CC(N)=O)[C@@H](CCC(N)=O)[C@]2(C)CC(N)=O.[CH2-][C@H]1O[C@@H](n2cnc3c(N)ncnc32)[C@H](O)[C@@H]1O.[Co] [COENZYME B12] | 51 | −17 | –
15 | 7.54 | CN(CC(=O)O)C(=N)N [CREATINE] | 28 | 0.34 | –
16 | 7.24 | N[C@@H](CS)C(=O)O [CYSTEINE] | −50 | −35 | –
17 | 7.59 | CCOC(=O)c1ccc(C(C)=O)cc1 [ETHYL 4-ACETYLBENZOATE] | 42 | 49 | K Factor [1]: 1
18 | 5.98 | CCOC(=O)CCCC(C)=O [ETHYL 4-ACETYLBUTYRATE] | 58 | 51 | K Factor [1]: 1
19 | 6 | Nc1nc2ncc(CNc3ccc(C(=O)N[C@@H](CCC(=O)O)C(=O)O)cc3)nc2c(=O)[nH]1 [FOLIC ACID] | 24 | −1.4 | –
20 | 4.2 | N[C@@H](CCC(=O)O)C(=O)O [GLUTAMIC ACID] | – | – | K Factor [1]: 2
21 | 3.58 | N[C@@H](CCC(=O)N[C@@H](CS)C(=O)NCC(=O)O)C(=O)O [GLUTATHIONE] | 34 | 2 | K Factor [1]: 1; pH (H20) ([2]; listed as glutathione): ~3

Row | pH (H20) [2] | Molecule | G Factor (G14) [1] | X Factor [1] | further results
22 | 7.27 | NCC(=O)O [GLYCINE] | 40 | −.34 | K Factor [1]: 2
23 | 6.46 | O=C(O)CNC(=O)c1ccccc1 [HIPPURIC ACID] | 33 | 2 | K Factor [1]: 1
24 | 6.75 | N[C@@H](Cc1c[nH]cn1)C(=O)O [HISTIDINE] | 6 | – | G Factor (G7) [1, 3]: 54; K Factor [1]: 1, 1
25 | 7.4 | N[C@@H](CCO)C(=O)O [HOMOSERINE] | 39 | 77 | –
26 | 6.99 | CC[C@H](C)[C@H](N)C(=O)O [ISOLEUCINE] | 30 | −119 | –
27 | – | C/C1=C2/[N-][C@H]([C@H](CC(N)=O)[C@@]2(C)CCC(=O)NC[C@H](C)OP(=O)([O-])O[C@H]2[C@@H](O)[C@@H](n3cnc4cc(C)c(C)cc43)O[C@@H]2CO)[C@]2(C)N=C(/C(C)=C3N=C(/C=C4N=C1[C@@H](CCC(N)=O)C\4(C)C)[C@@H](CCC(N)=O)[C@]\3(C)CC(N)=O)[C@@H](CCC(N)=O)[C@]2(C)CC(N)=O.[CH3-].[Co+3] [METHYLCOBALAMIN] | 25 | 1 | –
28 | – | NCCC[C@H](N)C(=O)O [ORNITHINE] | 28 | 16 | –
29 | – | O=C(O)CCCCC1CCSS1 (stereo not drawn) [α-lipoic acid, lipoic acid] | – | – | results when substituted for benzoate buffer ([1]; used in conjunction with chondroitin sulfate as in plates 6 or 13 of Table 9): comparable results
30 | – | N-carboxymethylchitosan N,S-sulfate | – | – | effect on transient expression when present before or during the transfection step [1]: blocking effect
31 | – | carboxymethylcellulose | – | – | effect on transient expression when present before or during the transfection step [1]: blocking effect
32 | – | dermatan sulfate | – | – | effect on transient expression when present before or during the transfection step [1]: blocking effect
33 | – | ethyoxy benzoic acid | – | – | effect on transient expression [1]: capable of prolonging transient expression
34 | – | gentamicin [reference compound] | – | – | effect on protein production ([1]; control plates 1A (with gentamicin) vs 1B (no gentamicin)): somewhat suppressed protein production
35 | – | heparan sulfate | – | – | effect on transient expression when present before or during the transfection step [1]: blocking effect
36 | – | heparin [reference compound] | – | – | effect on transient expression when added after the transfection step [1]: effective in enhancing transient expression; also recorded: enhance transient expression; effect on transient expression when present before or during the transfection step [1]: blocking effect; also recorded: blocked transient expression
37 | – | hydroxypropyl guaran | – | – | effect on transient expression [1]: capable of prolonging transient expression; effect on transient expression ([1]; listed as Hydroxypropyl guarans): enhance transient expression to some degree
38 | – | iso-propyl benzoic acid | – | – | effect on transient expression [1]: capable of prolonging transient expression
39 | – | isobutyl benzoic acid | – | – | effect on transient expression [1]: capable of prolonging transient expression
40 | – | methoxy benzoic acid | – | – | effect on transient expression [1]: capable of prolonging transient expression
41 | – | t-butyl benzoic acid | – | – | effect on transient expression [1]: capable of prolonging transient expression

Row | Molecule | pH (H20) [2] | G Factor (G14) [1] | X Factor [1] | further results
42 | O=C(O)c1ccccc1 [BENZOIC ACID] | 4.21 | 28 | −3.1 | K Factor [1]: 1
43 | NC(=O)NCCC[C@H](N)C(=O)O [CITRULLINE] | 7.71 | 46 | 39 | K Factor [1]: 1
44 | N[C@@H](Cc1cc(I)c(O)c(I)c1)C(=O)O [DIIODOTYROSINE] | 7.23 | – | −48 | G Factor (G7) [1, 4]: −8*
45 | O=C(O)CCCC(=O)O [GLUTARIC ACID] | 3.85 | −77 | 22 | –
46 | N=C(N)NCCC[C@H](N)C(=O)O [L-ARGININE] | 8.66 | 57 | – | G Factor (G7) [1, 4]: 11
